Patent EP0327492A1, “Herbicidally and plantgrowth regulatory active quinoline and pyrindine compounds” (CIBA-GEIGY AG, priority 1988, dated 1989)

What was measured:
Format in all cases: in vivo
Baumwolle = test: Post-emergent herbicidal action (B.3), crop tolerance; details: 500 bis 2000 [g/ha], 15 days after treatment
Protocol: (§1) Im Gewächshaus wird unmittelbar nach der Einsaat der Versuchspflanzen in Saatschalen die Erdoberfläche mit einer wässrigen Dispersion der Wirkstoffe, erhalten aus einem 25 %igen Emulsionskonzentrat behandelt. Es werden Konzentrationen von 2000-500 g Wirksubstanz/Hektar angewendet. Die Saatschalen werden im Gewächshaus bei 22-25° C und 50-70 % relativer Luftfeuchtigkeit gehalten und der Versuch nach 3 Wochen ausgewertet und die Resultate nach folgender Notenskala ausgewertet. • 1 Pflanze hat nicht gekeimt oder ist eingegangen • 2-3 sehr starke Schäden • 4 starke Schäden • 5 mittlere Schäden, die Pflanzen sind verkümmert • 6 Schäden, die Pflanze kann regenerieren • 7-8 leichte Schäden • 9 normales Wachstum, wie das unbehandelter Pflanzen
(§2) Boniturnoten von 1 bis 4 (insbesondere von 1 bis 3) weisen auf eine gute bis sehr gute Herbizidwirkung hin. Boniturnoten von 6 bis 9 (insbesondere 7 bis 9) weisen auf eine gute Toleranz (insbesondere bei Kulturpflanzen) hin.
(§3) Eine Anzahl Unkräuter, sowohl monokotyle wie dikotyle, werden nach dem Auflaufen (im 4- bis 6-Blattstadium) mit einer wässrigen Wirkstoffdispersion in einer Dosierung von 2000-500 g Wirksubstanz pro Hektar auf die Pflanzen gespritzt und diese bei 24°-26°C und 45-60 % relativer Luftfeuchtigkeit gehalten. 15 Tage nach der Behandlung wird der Versuch nach dem in Beispiel B.2. gegebenen Massstab bewertet.

Soja [1] = test: as above; details: 500 bis 2000 [g/ha], 15 days after treatment
Protocol: as §1, §2, §3

Soja [2] = test: Pre-emergent herbicidal action (B.2), crop tolerance; details: 500 bis 2000 [g/ha], evaluated after 3 weeks
Protocol: as §1, §2

Chenopodium Sp. [3] = test: Post-emergent herbicidal action, contact herbicide (B.3); details: 500 bis 2000 [g/ha], 15 days after treatment
Outline: (§4)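 Read-out is a visual 1-9 damage score taken 15 days after spraying, where 1 means the plant died and 9 means unaffected growth. Plants were treated at the 4- to 6-leaf stage with 2000-500 g active substance per hectare as an aqueous dispersion and kept at 24-26 °C and 45-60% humidity.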

Solanum nigrum [4] = test: as above; details: 500 bis 2000 [g/ha], 15 days after treatment
Outline: as §4

Chrysanthe. leuc. [5] = test: as above; details: 500 bis 2000 [g/ha], 15 days after treatment
Outline: as §4

Veronica Sp. [6] = test: as above; details: 500 bis 2000 [g/ha], 15 days after treatment
Outline: as §4

Echinochloa crus galli [7] = test: as above; details: 500 bis 2000 [g/ha], 15 days after treatment
Outline: as §4

Galium aparine [8] = test: as above; details: 500 bis 2000 [g/ha], 15 days after treatment
Outline: as §4

Alopecurus myos. [9] = test: as above; details: 500 bis 2000 [g/ha], 15 days after treatment
Outline: as §4

Sinapis [10] = test: as above; details: 500 bis 2000 [g/ha], 15 days after treatment
Outline: as §4

Abutilon [11] = test: as above; details: 500 bis 2000 [g/ha], 15 days after treatment
Outline: as §4

Digitaria sang. [12] = test: as above; details: 500 bis 2000 [g/ha], 15 days after treatment
Outline: as §4

Stellaria [13] = test: as above; details: 500 bis 2000 [g/ha], 15 days after treatment
Outline: as §4

Avena fatua [14] = test: as above; details: 500 bis 2000 [g/ha], 15 days after treatment
Outline: as §4

Bromus tectorum [15] = test: as above; details: 500 bis 2000 [g/ha], 15 days after treatment
Outline: as §4

Sorghum halep. [16] = test: as above; details: 500 bis 2000 [g/ha], 15 days after treatment
Outline: as §4

Amaranthus ret. [17] = test: as above; details: 500 bis 2000 [g/ha], 15 days after treatment
Outline: as §4

Xanthium Sp. = test: as above; details: 500 bis 2000 [g/ha], 15 days after treatment
Outline: as §4

Lolium perenne [18] = test: as above; details: 500 bis 2000 [g/ha], 15 days after treatment
Outline: as §4

Chenopodium Sp. [19] = test: Pre-emergent herbicidal action (B.2); details: 500 bis 2000 [g/ha], evaluated after 3 weeks
Outline: (§5)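 Soil surface in seed trays sprayed right after sowing with an aqueous dispersion made from a 25% emulsion concentrate, at 2000-500 g active substance/ha. Trays kept in greenhouse at 22-25 °C, 50-70% relative humidity. Damage scored after 3 weeks on a 1-9 scale (1 = not germinated or dead, 9 = normal growth as untreated).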

Solanum nigrum [20] = test: Pre-emergent herbicidal action (B.2); details: 500 bis 2000 [g/ha], evaluated after 3 weeks
Outline: as §5

Chrysanthe. leuc. [21] = test: Pre-emergent herbicidal action (B.2); details: 500 bis 2000 [g/ha], evaluated after 3 weeks
Outline: as §5

Veronica Sp. [22] = test: Pre-emergent herbicidal action (B.2); details: 500 bis 2000 [g/ha], evaluated after 3 weeks
Outline: as §5

Ipomoea = test: Pre-emergent herbicidal action (B.2); details: 500 bis 2000 [g/ha], evaluated after 3 weeks
Outline: as §5

Echinochloa crus galli [23] = test: Pre-emergent herbicidal action (B.2); details: 500 bis 2000 [g/ha], evaluated after 3 weeks
Outline: as §5

Galium aparine [24] = test: Pre-emergent herbicidal action (B.2); details: 500 bis 2000 [g/ha], evaluated after 3 weeks
Outline: as §5

Alopecurus myos. [25] = test: Pre-emergent herbicidal action (B.2); details: 500 bis 2000 [g/ha], evaluated after 3 weeks
Outline: as §5

Sinapis [26] = test: Pre-emergent herbicidal action (B.2); details: 500 bis 2000 [g/ha], evaluated after 3 weeks
Outline: as §5

Abutilon [27] = test: Pre-emergent herbicidal action (B.2); details: 500 bis 2000 [g/ha], evaluated after 3 weeks
Outline: as §5

Digitaria sang. [28] = test: Pre-emergent herbicidal action (B.2); details: 500 bis 2000 [g/ha], evaluated after 3 weeks
Outline: as §5

Stellaria [29] = test: Pre-emergent herbicidal action (B.2); details: 500 bis 2000 [g/ha], evaluated after 3 weeks
Outline: as §5

Avena fatua [30] = test: Pre-emergent herbicidal action (B.2); details: 500 bis 2000 [g/ha], evaluated after 3 weeks
Outline: as §5

Bromus tectorum [31] = test: Pre-emergent herbicidal action (B.2); details: 500 bis 2000 [g/ha], evaluated after 3 weeks
Outline: as §5

Sorghum halep. [32] = test: Pre-emergent herbicidal action (B.2); details: 500 bis 2000 [g/ha], evaluated after 3 weeks
Outline: as §5

Amaranthus ret. [33] = test: Pre-emergent herbicidal action (B.2); details: 500 bis 2000 [g/ha], evaluated after 3 weeks
Outline: as §5

Lolium perenne [34] = test: Pre-emergent herbicidal action (B.2); details: 500 bis 2000 [g/ha], evaluated after 3 weeks
Outline: as §5

SMILES: CC1CCCc2nc(C3=NC(=O)C(C)(C(C)C)N3)c(C(=O)O)cc21 (stereo not shown) [Verbindung 2.02, 2-(5-Isopropyl-5-methyl-1 H-imidazol-4-on-2-yl)-5-methyl-5,6,7,8-tetrahydrochinolin-3-carbonsäure]
- Toleranz (im Wachstum beeinflusst) (Baumwolle): gute Toleranz (Boniturnoten von 6 bis 9 (insbesondere 7 bis 9) weisen auf eine gute Toleranz (insbesondere bei Kulturpflanzen) hin)
- Toleranz (im Wachstum beeinflusst) (Soja [1]): gute Toleranz (Boniturnoten von 6 bis 9 (insbesondere 7 bis 9) weisen auf eine gute Toleranz (insbesondere bei Kulturpflanzen) hin)
- Toleranz (im Wachstum beeinflusst) (Soja [2]): gute Toleranz (Boniturnoten von 6 bis 9 (insbesondere 7 bis 9) weisen auf eine gute Toleranz (insbesondere bei Kulturpflanzen) hin)
- Herbizidwirkung (Chenopodium Sp. [3]): gute bis sehr gute Herbizidwirkung (Boniturnoten von 1 bis 4 (insbesondere von 1 bis 3) weisen auf eine gute bis sehr gute Herbizidwirkung hin)
- Herbizidwirkung (Solanum nigrum [4]): gute bis sehr gute Herbizidwirkung (Boniturnoten von 1 bis 4 (insbesondere von 1 bis 3) weisen auf eine gute bis sehr gute Herbizidwirkung hin)
- Herbizidwirkung (Chrysanthe. leuc. [5]): gute bis sehr gute Herbizidwirkung (Boniturnoten von 1 bis 4 (insbesondere von 1 bis 3) weisen auf eine gute bis sehr gute Herbizidwirkung hin)
- Herbizidwirkung (Veronica Sp. [6]): gute bis sehr gute Herbizidwirkung (Boniturnoten von 1 bis 4 (insbesondere von 1 bis 3) weisen auf eine gute bis sehr gute Herbizidwirkung hin)
- Herbizidwirkung (Echinochloa crus galli [7]): gute bis sehr gute Herbizidwirkung (Boniturnoten von 1 bis 4 (insbesondere von 1 bis 3) weisen auf eine gute bis sehr gute Herbizidwirkung hin)
- Herbizidwirkung (Galium aparine [8]): gute bis sehr gute Herbizidwirkung (Boniturnoten von 1 bis 4 (insbesondere von 1 bis 3) weisen auf eine gute bis sehr gute Herbizidwirkung hin)
- Herbizidwirkung (Alopecurus myos. [9]): gute bis sehr gute Herbizidwirkung (Boniturnoten von 1 bis 4 (insbesondere von 1 bis 3) weisen auf eine gute bis sehr gute Herbizidwirkung hin)
- Herbizidwirkung (Sinapis [10]): gute bis sehr gute Herbizidwirkung (Boniturnoten von 1 bis 4 (insbesondere von 1 bis 3) weisen auf eine gute bis sehr gute Herbizidwirkung hin)
- Herbizidwirkung (Abutilon [11]): gute bis sehr gute Herbizidwirkung (Boniturnoten von 1 bis 4 (insbesondere von 1 bis 3) weisen auf eine gute bis sehr gute Herbizidwirkung hin)
- Herbizidwirkung (Digitaria sang. [12]): gute bis sehr gute Herbizidwirkung (Boniturnoten von 1 bis 4 (insbesondere von 1 bis 3) weisen auf eine gute bis sehr gute Herbizidwirkung hin)
- Herbizidwirkung (Stellaria [13]): gute bis sehr gute Herbizidwirkung (Boniturnoten von 1 bis 4 (insbesondere von 1 bis 3) weisen auf eine gute bis sehr gute Herbizidwirkung hin)
- Herbizidwirkung (Avena fatua [14]): gute bis sehr gute Herbizidwirkung (Boniturnoten von 1 bis 4 (insbesondere von 1 bis 3) weisen auf eine gute bis sehr gute Herbizidwirkung hin)
- Herbizidwirkung (Bromus tectorum [15]): gute bis sehr gute Herbizidwirkung (Boniturnoten von 1 bis 4 (insbesondere von 1 bis 3) weisen auf eine gute bis sehr gute Herbizidwirkung hin)
- Herbizidwirkung (Sorghum halep. [16]): gute bis sehr gute Herbizidwirkung (Boniturnoten von 1 bis 4 (insbesondere von 1 bis 3) weisen auf eine gute bis sehr gute Herbizidwirkung hin)
- Herbizidwirkung (Amaranthus ret. [17]): gute bis sehr gute Herbizidwirkung (Boniturnoten von 1 bis 4 (insbesondere von 1 bis 3) weisen auf eine gute bis sehr gute Herbizidwirkung hin)
- Herbizidwirkung (Xanthium Sp.): gute bis sehr gute Herbizidwirkung (Boniturnoten von 1 bis 4 (insbesondere von 1 bis 3) weisen auf eine gute bis sehr gute Herbizidwirkung hin)
- Herbizidwirkung (Lolium perenne [18]): gute bis sehr gute Herbizidwirkung (Boniturnoten von 1 bis 4 (insbesondere von 1 bis 3) weisen auf eine gute bis sehr gute Herbizidwirkung hin)
- Herbizidwirkung (Chenopodium Sp. [19]): gute bis sehr gute Herbizidwirkung (Boniturnoten von 1 bis 4 (insbesondere von 1 bis 3) weisen auf eine gute bis sehr gute Herbizidwirkung hin)
- Herbizidwirkung (Solanum nigrum [20]): gute bis sehr gute Herbizidwirkung (Boniturnoten von 1 bis 4 (insbesondere von 1 bis 3) weisen auf eine gute bis sehr gute Herbizidwirkung hin)
- Herbizidwirkung (Chrysanthe. leuc. [21]): gute bis sehr gute Herbizidwirkung (Boniturnoten von 1 bis 4 (insbesondere von 1 bis 3) weisen auf eine gute bis sehr gute Herbizidwirkung hin)
- Herbizidwirkung (Veronica Sp. [22]): gute bis sehr gute Herbizidwirkung (Boniturnoten von 1 bis 4 (insbesondere von 1 bis 3) weisen auf eine gute bis sehr gute Herbizidwirkung hin)
- Herbizidwirkung (Ipomoea): gute bis sehr gute Herbizidwirkung (Boniturnoten von 1 bis 4 (insbesondere von 1 bis 3) weisen auf eine gute bis sehr gute Herbizidwirkung hin)
- Herbizidwirkung (Echinochloa crus galli [23]): gute bis sehr gute Herbizidwirkung (Boniturnoten von 1 bis 4 (insbesondere von 1 bis 3) weisen auf eine gute bis sehr gute Herbizidwirkung hin)
- Herbizidwirkung (Galium aparine [24]): gute bis sehr gute Herbizidwirkung (Boniturnoten von 1 bis 4 (insbesondere von 1 bis 3) weisen auf eine gute bis sehr gute Herbizidwirkung hin)
- Herbizidwirkung (Alopecurus myos. [25]): gute bis sehr gute Herbizidwirkung (Boniturnoten von 1 bis 4 (insbesondere von 1 bis 3) weisen auf eine gute bis sehr gute Herbizidwirkung hin)
- Herbizidwirkung (Sinapis [26]): gute bis sehr gute Herbizidwirkung (Boniturnoten von 1 bis 4 (insbesondere von 1 bis 3) weisen auf eine gute bis sehr gute Herbizidwirkung hin)
- Herbizidwirkung (Abutilon [27]): gute bis sehr gute Herbizidwirkung (Boniturnoten von 1 bis 4 (insbesondere von 1 bis 3) weisen auf eine gute bis sehr gute Herbizidwirkung hin)
- Herbizidwirkung (Digitaria sang. [28]): gute bis sehr gute Herbizidwirkung (Boniturnoten von 1 bis 4 (insbesondere von 1 bis 3) weisen auf eine gute bis sehr gute Herbizidwirkung hin)
- Herbizidwirkung (Stellaria [29]): gute bis sehr gute Herbizidwirkung (Boniturnoten von 1 bis 4 (insbesondere von 1 bis 3) weisen auf eine gute bis sehr gute Herbizidwirkung hin)
- Herbizidwirkung (Avena fatua [30]): gute bis sehr gute Herbizidwirkung (Boniturnoten von 1 bis 4 (insbesondere von 1 bis 3) weisen auf eine gute bis sehr gute Herbizidwirkung hin)
- Herbizidwirkung (Bromus tectorum [31]): gute bis sehr gute Herbizidwirkung (Boniturnoten von 1 bis 4 (insbesondere von 1 bis 3) weisen auf eine gute bis sehr gute Herbizidwirkung hin)
- Herbizidwirkung (Sorghum halep. [32]): gute bis sehr gute Herbizidwirkung (Boniturnoten von 1 bis 4 (insbesondere von 1 bis 3) weisen auf eine gute bis sehr gute Herbizidwirkung hin)
- Herbizidwirkung (Amaranthus ret. [33]): gute bis sehr gute Herbizidwirkung (Boniturnoten von 1 bis 4 (insbesondere von 1 bis 3) weisen auf eine gute bis sehr gute Herbizidwirkung hin)
- Herbizidwirkung (Lolium perenne [34]): gute bis sehr gute Herbizidwirkung (Boniturnoten von 1 bis 4 (insbesondere von 1 bis 3) weisen auf eine gute bis sehr gute Herbizidwirkung hin)
